Where two headings read alike, the source gives them in different places.
Target: T1, human TRPM8 receptor (Homo sapiens, UniProt Q7Z2W7)
T1 construct: expressed in transfected cells; host or cells: HEK293, stably transfected, tetracycline-inducible expression
Assay: Assay on TRPM8 modulators: Ca2+-sensitive dye (Fluo-4) fluorescence in HEK293-TRPM8 test cells
Type: cell-based
Design: relative TRPM8 activation: concentration or dose not given beside the values
Conditions: for relative TRPM8 activation: HEK293 cells recombinantly expressing human TRPM8; for EC50: HEK293-TRPM8 cells
Text: The starting point for cloning the human TRPM8 receptor is an LnCaP cDNA bank. This is commercially available (e.g. BioChain, Hayward, USA) or can be produced from the andro gene-sensitive human prostate adenocarcinoma cell line LnCaP (e.g. ATCC, CRL1740 or ECACC, 891 1021 1) using standard kits.
The coding TRPM8 sequence (see e.g. http://www. ncbi.nlm.nih.gov/entrez/viewer.fcgi?db=nuccore&id=109689694) can be PCR-amplified and cloned using standard methods. The human TRPM8 gene isolated in this way was used to produce the plasmid plnd_M8. Alternatively, the TRPM8 gene can also be produced synthetically.
A stably transfected HEK293 cell line was produced as a test cell system using human TRPM8 DNA. Preference was given to HEK293, which offers the possibility of inducing TRPM8 expression using tetracycline via the plasmid introduced.
A test similar to the test already described in the literature by Behrendt H. J. et al, Br. J. Pharmacol. 141, 2004, 737-745, is performed. The agonization or antagonization of the receptor can be quantified using a Ca^2+-sensitive dye (e.g. FURA, Fluo-4 etc.). Agonists alone cause an increase in the Ca^2+ signal; antagonists cause a reduction in the Ca^2+ signal in the presence of e.g. menthol (detected in each case using the Fluo-4 dye, which has different fluorescence properties due to Ca^2+ ions).
First, a fresh culture of transformed HEK cells is prepared in cell culture flasks in the usual way. The HEK293-TRPM8 test cells are detached from the cell culture flasks using trypsin and 40,000 cells/well are seeded with 100 μl medium in 96-well plates (Greiner #655948 poly-D-lysine-coated). To induce the TRPM8 receptor, tetracycline is added to the growth medium (DMEM/HG, 10% FCS tetracycline-free, 4 mM L-glutamine, 15 μg/ml blasticidin, 100 μg/ml hygromycin B, 1 μg/ml tetracycline).
On the following day, the cells are loaded with Fluo-4AM dye and the test is performed. Proceed as follows: Addition of 100 μl/well staining solution Ca-4 kit (RB 141, Molecular Devices) to each 100 μl medium (DMEM/HG, 10% FCS tetracycline-free, 4 mM L-glutamine, 15 μg/ml blasticidin, 100 μg/ml hygromycin B, 1 μg/ml tetracycline).
Incubation in incubator, 30 minutes/37° C./5% CO2, 30 minutes/RT.
Preparation of the test substances (different concentrations in 200 μl HBSS buffer), as well as positive controls (different concentrations of menthol, icilin or lonomycin in 200 μl HBSS buffer) and negative controls (only 200 μl HBSS buffer) Addition of the test substances in quantities of 50 μl/well and measurement of the fluorescence change (e.g. in the assay device FLIPR, Molecular Devices or NovoStar, BMG) at 485 nm excitation, 520 nm emission, and evaluation of the potency of the different substances/concentrations and determination of the ECG. e.g. in the FLIPR assay device, Molecular Devices or NovoStar, BMG) at 485 nm excitation, 520 nm emission, and evaluation of the potency of the various substances/concentrations and determination of the EC50 values.
The test substances are used in triplicates in concentrations of 0.1-200 μM in the assay. Normally, the compounds are kept ready in DMSO solutions and diluted down to a maximum DMSO concentration of 2% for the assay.
The activity of the active substances in relation to activation of the TRPM8 channel is determined using the assay described. This is done in a concentration-dependent manner. For each active substance, 6 to 10 concentrations are measured as standard. A mathematical method (4-parameter or 5-parameter logistic curve fitting) can be used to determine the EC50 value as the inflection point of the sigmoidal curve from the activity values determined. These are standard biochemical methods that are familiar to experts.

[1] = TRPM8 activation, 6 to 10 concentrations, logistic curve fitting, read-out: EC50 value

T1 sequence (Q7Z2W7 whole entry): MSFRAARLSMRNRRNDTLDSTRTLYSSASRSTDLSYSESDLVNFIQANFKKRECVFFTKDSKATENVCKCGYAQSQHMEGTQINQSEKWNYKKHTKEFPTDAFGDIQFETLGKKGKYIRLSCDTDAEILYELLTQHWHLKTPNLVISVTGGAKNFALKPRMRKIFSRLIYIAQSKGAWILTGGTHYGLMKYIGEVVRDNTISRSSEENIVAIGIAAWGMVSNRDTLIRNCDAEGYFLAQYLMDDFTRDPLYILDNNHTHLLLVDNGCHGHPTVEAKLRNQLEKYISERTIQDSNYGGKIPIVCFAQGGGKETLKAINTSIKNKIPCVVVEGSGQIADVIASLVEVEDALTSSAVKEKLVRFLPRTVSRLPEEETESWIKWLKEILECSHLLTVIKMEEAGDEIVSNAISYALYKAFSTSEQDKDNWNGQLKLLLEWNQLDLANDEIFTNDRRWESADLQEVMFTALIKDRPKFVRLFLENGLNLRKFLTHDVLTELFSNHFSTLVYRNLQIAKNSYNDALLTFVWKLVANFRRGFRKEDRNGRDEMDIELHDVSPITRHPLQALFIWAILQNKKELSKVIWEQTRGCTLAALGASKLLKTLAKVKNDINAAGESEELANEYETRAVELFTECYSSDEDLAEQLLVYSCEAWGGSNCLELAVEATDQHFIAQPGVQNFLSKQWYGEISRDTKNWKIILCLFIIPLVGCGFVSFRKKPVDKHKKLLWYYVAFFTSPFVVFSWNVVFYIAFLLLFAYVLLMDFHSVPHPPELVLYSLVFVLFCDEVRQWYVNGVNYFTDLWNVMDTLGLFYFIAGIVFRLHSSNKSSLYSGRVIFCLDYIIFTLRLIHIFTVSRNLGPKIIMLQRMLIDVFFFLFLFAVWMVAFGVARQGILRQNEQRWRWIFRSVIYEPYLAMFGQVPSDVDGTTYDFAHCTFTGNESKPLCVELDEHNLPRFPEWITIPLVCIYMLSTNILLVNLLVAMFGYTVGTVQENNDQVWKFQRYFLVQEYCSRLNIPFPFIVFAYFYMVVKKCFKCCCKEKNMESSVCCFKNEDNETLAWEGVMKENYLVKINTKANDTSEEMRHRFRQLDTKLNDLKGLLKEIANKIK

Structure (SMILES) | relative TRPM8 activation [%] | further results
CSCC(=O)N1CCCCC1c1nc(-c2ccccc2)c(-c2ccccc2)o1 (stereo not drawn) [Compound A-21, 1-[2-(4,5-diphenyloxazol-2-yl)-1-piperidyl]-2-methylsulfanyl-ethanone] | 70 | 
CNC(=O)C(C)Sc1nc(-c2ccc(OC)cc2)c(-c2ccc(OC)cc2)o1 (stereo not drawn) [Compound A-69, 2-[4,5-bis(4-methoxyphenyl)oxazol-2-yl]sulfanyl-N-methyl-propanamide] | −2 | 
CCCC(C)NC(=O)CSc1nc(-c2ccccc2)c(-c2ccccc2)o1 (stereo not drawn) [Compound A-52, 2-(4,5-diphenyloxazol-2-yl)sulfanyl-N-(1-methylbutyl) acetamide] | 1 | 
CCNC(=O)C1CC(C)CCC1C(C)C [WS-3, L-menthanecarboxylic acid N-ethylamide, reference compound] |  | EC50 [1]: 1720 nM
CNC(=O)CSc1nc(-c2ccc(OC)cc2)c(-c2ccc(OC)cc2)o1 [Compound A-72, 2-[4,5-bis(4-methoxyphenyl)oxazol-2-yl]sulfanyl-N-methyl-acetamide] | −5 | 
CN(C(=O)CSc1nc(-c2ccccc2)c(-c2ccccc2)o1)C1CC1 [Compound A-27, N-cyclopropyl-2-(4,5-diphenyloxazol-2-yl)sulfanyl-N-methyl-acetamide] | 42 | EC50 (Table 6, read-out: TRPM8 EC50): 18000 nM; EC50 (Table 8, read-out: TRPM8 EC50): 18000 nM
O=C(CSc1nc(-c2ccccc2)c(-c2ccccc2)o1)NC1CC1 [Compound A-06, N-cyclopropyl-2-(4,5-diphenyloxazol-2-yl)sulfanyl-acetamide] |  | EC50 [1]: ≤ 1000 nM; EC50 (Table 6, read-out: TRPM8 EC50): 340 nM; EC50 (Table 8, read-out: TRPM8 EC50): 340 nM
CNC(=O)CSc1ncc(-c2ccccc2)[nH]1 [Compound A-64] | −1 | 
O=C(CCc1nc(-c2ccccc2)c(-c2ccccc2)o1)C1CC1 [Compound A-31, 1-cyclopropyl-3-(4,5-diphenyloxazol-2-yl)propan-1-one] | 24 | 
CC1CCCCC1NC(=O)CSc1nc(-c2ccccc2)c(-c2ccccc2)o1 (stereo not drawn) [Compound A-42, 2-(4,5-diphenyloxazol-2-yl)sulfanyl-N-(2-methylcyclohexyl) acetamide] | 4 | 
CC(C)C(C)NC(=O)CSc1nc(-c2ccccc2)c(-c2ccccc2)o1 (stereo not drawn) [Compound A-46, N-(1,2-dimethylpropyl)-2-(4,5-diphenyloxazol-2-yl)sulfanyl-acetamide] | 2 | 
CC(Sc1nnc(-c2ccccc2)c(-c2ccccc2)n1)C(=O)N1CCCC1 (stereo not drawn) [Compound B-18, 2-[(5,6-diphenyl-1,2,4-triazin-3-yl)sulfanyl]-1-pyrrolidin-1-yl-propan-1-one] |  | EC50 (Table 5, read-out: TRPM8 EC50): 5360 nM; EC50 (Table 7, read-out: TRPM8 EC50): 5360 nM
CN(C)CCSc1nc(-c2ccccc2)c(-c2ccccc2)o1 [Compound A-23, 2-(4,5-diphenyloxazol-2-yl)sulfanyl-N,N-dimethyl-ethanamine] | 62 | 
O=C(CSc1nc(-c2ccccc2)c(-c2ccccc2)o1)NC1CCC1 [Compound A-43, N-cyclobutyl-2-(4,5-diphenyloxazol-2-yl)sulfanyl-acetamide] | 3 | 
CNC(=O)CSc1cnc(-c2ccccc2)c(-c2ccccc2)n1 [Compound B-04, 2-(5,6-diphenylpyrazin-2-yl)sulfanyl-N-methyl-acetamide] |  | EC50 [1]: ≤ 1000 nM; EC50 (Table 5, read-out: TRPM8 EC50): 370 nM; EC50 (Table 7, read-out: TRPM8 EC50): 370 nM
CCC(Sc1nnc(-c2ccccc2)c(-c2ccccc2)n1)C(=O)N(C)C (stereo not drawn) [Compound B-05, 2-[(5,6-diphenyl-1,2,4-triazin-3-yl)sulfanyl]-N,N-dimethyl-butanamide] |  | EC50 [1]: ≤ 1000 nM; EC50 (Table 5, read-out: TRPM8 EC50): 100 nM; EC50 (Table 7, read-out: TRPM8 EC50): 100 nM
CN(C)C(=O)CCc1nc(-c2ccccc2)c(-c2ccccc2)o1 [Compound A-34, 3-(4,5-diphenyloxazol-2-yl)-N,N-dimethyl-propanamide] | 16 | 
CCN(CC)C(=O)CSc1nc(-c2ccccc2)c(-c2ccccc2)o1 [Compound A-29, 2-(4,5-diphenyloxazol-2-yl)sulfanyl-N,N-diethyl-acetamide] | 36 | 
CNC(=O)CSc1ncco1 [Compound A-59, N-methyl-2-oxazol-2-ylsulfanyl-acetamide] | 1 | 

Now from value to compound, other results behind:

relative TRPM8 activation [%] | Structure (SMILES) | further results
−3 | CSc1nnc(-c2ccccc2)c(-c2ccccc2)n1 [Compound B-64, 3-methylsulfanyl-5,6-diphenyl-1,2,4-triazine] | 
8 | COC(=O)Nc1nnc(-c2ccccc2)c(-c2ccccc2)n1 [Compound B-41, methyl N-(5,6-diphenyl-1,2,4-triazin-3-yl)carbamate] | 
2 | CNC(=O)C(C)Oc1nnc(-c2ccccc2)c(-c2ccccc2)n1 (stereo not drawn) [Compound B-57, 2-[(5,6-diphenyl-1,2,4-triazin-3-yl)oxy]-N-methyl-propanamide] | 
25 | CNC(=O)C(C)Sc1nncc(-c2ccccc2)n1 (stereo not drawn) [Compound B-34, N-methyl-2-[(5-phenyl-1,2,4-triazin-3-yl)sulfanyl]propanamide] | 
2 | OCC(O)CNc1nnc(-c2ccccc2)c(-c2ccccc2)n1 (stereo not drawn) [Compound B-54, 3-[(5,6-diphenyl-1,2,4-triazin-3-yl)amino]propane-1,2-diol] | 
2 | NC(=O)Nc1nnc(-c2ccccc2)c(-c2ccccc2)n1 [Compound B-56, (5,6-diphenyl-1,2,4-triazin-3-yl)urea] | 
87 | CC(Sc1nnc(-c2ccccc2)c(-c2ccccc2)n1)C(=O)NC1CCCC1 (stereo not drawn) [Compound B-22, N-cyclopentyl-2-[(5,6-diphenyl-1,2,4-triazin-3-yl)sulfanyl]propanamide] | 
37 | CC(Sc1nnc(-c2ccccc2)c(-c2ccccc2)n1)C(=O)NCC1CCCO1 (stereo not drawn) [Compound B-32, 2-[(5,6-diphenyl-1,2,4-triazin-3-yl)sulfanyl]-N-(tetrahydrofuran-2-ylmethyl)propanamide] | 
1 | CCC(Sc1nnc(-c2ccc(OC)c(OC)c2)c(-c2ccc(OC)c(OC)c2)n1)C(=O)NC1CCCC1 (stereo not drawn) [Compound B-61, 2-[[5,6-bis(3,4-dimethoxyphenyl)-1,2,4-triazin-3-yl]sulfanyl]-N-cyclopentyl-butanamide] | 
2 | COCCNc1nnc(-c2ccccc2)c(-c2ccccc2)n1 [Compound B-55, N-(2-methoxyethyl)-5,6-diphenyl-1,2,4-triazin-3-amine] | 
6 | CNC(=O)CNc1nnc(-c2ccccc2)c(-c2ccccc2)n1 [Compound B-43, 2-[(5,6-diphenyl-1,2,4-triazin-3-yl)amino]-N-methyl-acetamide] | 
4 | CC(Sc1nnc(-c2ccccc2)c(-c2ccccc2)n1)C(=O)NCc1cccs1 (stereo not drawn) [Compound B-48, 2-[(5,6-diphenyl-1,2,4-triazin-3-yl)sulfanyl]-N-(2-thienylmethyl) propanamide] | 
56 | CN(C)C(=O)CSc1nnc(-c2ccccc2)c(-c2ccccc2)n1 [Compound B-27, 2-[(5,6-diphenyl-1,2,4-triazin-3-yl)sulfanyl]-N,N-dimethyl-acetamide] | 
41 | COCCSc1nnc(-c2ccccc2)c(-c2ccccc2)n1 [Compound B-30, 3-(2-methoxyethyl-sulfanyl)-5,6-diphenyl-1,2,4-triazine] | 

— patent US20250163006A1, “New Coolants, and Preparations Containing Same” (Symrise AG, priority 2022, published 2025)
